{"source": "the supplement of paper PMC10307832", "test_in_all_cases": "relative viability (nuclei count vs DMSO), 5 days (fraction); higher = more cells survive", "key": {"[1]": {"compound": "c1ccc2c(CCNc3ccc(Nc4ccncc4)cc3)c[nH]c2c1 [Serdemetan] + C[C@@H](Oc1cc(-c2cnn(C3CCNCC3)c2)cnc1N)c1c(Cl)ccc(F)c1Cl [Crizotinib] (partner 1 µM)", "summary_of_the_method": "(§1)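 Medians of duplicate plates are given as relative viability. That measure is the nuclei count in treated wells divided by the count in vehicle wells. Counts were taken on 4× images of lung cancer cell lines in 1536-well plates, 5 days after pin-tool dosing the day after seeding with one drug alone or a fixed anchor-drug dose plus five library-drug doses (not always all listed) in √10 steps.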"}, "[2]": {"compound": "c1ccc2c(CCNc3ccc(Nc4ccncc4)cc3)c[nH]c2c1 [Serdemetan] + Nc1ncn([C@H]2C[C@H](O)[C@@H](CO)O2)c(=O)n1 [Decitabine] (partner 2 µM)", "summary_of_the_method": "as §1"}, "[3]": {"compound": "c1ccc2c(CCNc3ccc(Nc4ccncc4)cc3)c[nH]c2c1 [Serdemetan] + CC(C)C[C@H](NC(=O)[C@H](Cc1ccccc1)NC(=O)c1cnccn1)B(O)O [Bortezomib] (partner 0.002 µM)", "summary_of_the_method": "as §1"}, "[4]": {"compound": "c1ccc2c(CCNc3ccc(Nc4ccncc4)cc3)c[nH]c2c1 [Serdemetan] + O=C(c1cc(Cc2n[nH]c(=O)c3ccccc23)ccc1F)N1CCN(C(=O)C2CC2)CC1 [Olaparib] (partner 8 µM)", "summary_of_the_method": "as §1"}}}
{"cell line": "UMC-11", "values": [{"measurement": "relative viability", "setting": "[1]; first compound 0.04 µM", "result": 0.661}, {"measurement": "relative viability", "setting": "[1]; first compound 0.1265 µM", "result": 0.591}, {"measurement": "relative viability", "setting": "[1]; first compound 0.4 µM", "result": 0.577}, {"measurement": "relative viability", "setting": "[1]; first compound 1.265 µM", "result": 0.482}, {"measurement": "relative viability", "setting": "[1]; first compound 4 µM", "result": 0.358}, {"measurement": "relative viability", "setting": "[2]; first compound 0.04 µM", "result": 0.564}, {"measurement": "relative viability", "setting": "[2]; first compound 0.1265 µM", "result": 0.387}, {"measurement": "relative viability", "setting": "[2]; first compound 0.4 µM", "result": 0.685}, {"measurement": "relative viability", "setting": "[2]; first compound 1.265 µM", "result": 0.649}, {"measurement": "relative viability", "setting": "[2]; first compound 4 µM", "result": 0.532}, {"measurement": "relative viability", "setting": "[3]; first compound 0.04 µM", "result": 0.614}, {"measurement": "relative viability", "setting": "[3]; first compound 0.1265 µM", "result": 0.666}, {"measurement": "relative viability", "setting": "[3]; first compound 0.4 µM", "result": 0.668}, {"measurement": "relative viability", "setting": "[3]; first compound 1.265 µM", "result": 0.53}, {"measurement": "relative viability", "setting": "[3]; first compound 4 µM", "result": 0.839}, {"measurement": "relative viability", "setting": "[4]; first compound 0.04 µM", "result": 0.345}, {"measurement": "relative viability", "setting": "[4]; first compound 0.1265 µM", "result": 0.332}, {"measurement": "relative viability", "setting": "[4]; first compound 0.4 µM", "result": 0.319}, {"measurement": "relative viability", "setting": "[4]; first compound 1.265 µM", "result": 0.255}, {"measurement": "relative viability", "setting": "[4]; first compound 4 µM", "result": 0.593}]}
